The values that follow come from patent US11339165B2, “Pyrazolopyrimidines having activity against the respiratory syncytial virus (RSV)” (priority 2017, dated 2022).

Molecules are shown by their SMILES. Bounds are passed on as bounds.

Data set [1] has as its system rgRSV224 virus. Briefly: Antiviral activity: rgRSV224 (GFP) replication in HeLa cells. It is filed as cell-based, respiratory syncytial virus (RSV). Particulars: human respiratory syncytial virus, HeLa, 72 h, read-out: RSV HELA EC50 (μM), rgRSV224 virus (MOI=1), HeLa cells, GFP expression three days post-virus exposure.
Data set [2] can be described thus: in vitro. Particulars: human, TOX HELA CC50 (μM).

A word on the melting point: it is the temperature, or range, at which the solid turns liquid. One may read the EC50 as the concentration giving half of the maximal effect. As a reminder, the CC50 is the concentration giving 50% cytotoxicity. Read a high CC50 as lower toxicity to the cells. For the molecule `C[C@@H]1c2ccsc2CCN1C(=O)c1cc(C2CC2)n2nc(-c3ccc(N4CC[C@H](C(N)=O)C4)cc3F)cc2n1` (single isomer, unassigned) [Compound 46, (3S)-1-(4-{7-Cyclopropyl-5-[(4*R)-4-methyl-4,5,6,7-tetrahydro-thieno[3,2-c]pyridine-5-carbonyl]pyrazolo[1,5-a]pyrimidin-2-yl}-3-fluorophenyl)pyrrolidine-3-carboxamide], the melting point was 270 °C. The EC50 in data set [1] was 0.007 µM. The same molecule yielded a CC50 at 3 days in data set [2] of 31.3 µM.

Consider `C[C@@H]1c2ccccc2CCN1C(=O)c1cc(C2CC2)n2nc(-c3ccc(N4CC[C@H](C(N)=O)C4)nc3F)cc2n1` [Compound 49, (3S)-1-(5-{7-Cyclopropyl-5-[(1R)-1-methyl-1,2,3,4-tetrahydroisoquinoline-2-carbonyl]-pyrazolo[1,5-a]pyrimidin-2-yl}-6-fluoropyridin-2-yl)pyrrolidine-3-carboxamide], for which the melting point is 239.19 °C. Besides, in data set [1], the 50% effective concentration (EC50) came out at 0.024 µM. This molecule also had a CC50 at 3 days in data set [2] of 32.3 µM.

`CNC(=O)CC1CN(c2ccc(-c3cc4nc(C(=O)N5CCc6ccccc6[C@H]5C)cc(C5CC5)n4n3)c(F)c2)C1` [Compound 66, 2-[1-(4-{7-Cyclopropyl-5-[(1R)-1-methyl-1,2,3,4-tetrahydroisoquinoline-2-carbonyl]-pyrazolo[1,5-a]pyrimidin-2-yl}-3-fluorophenyl)azetidin-3-yl]-N-methylacetamide] gave a melting point of 143.13 °C. Moreover, the EC50 in data set [1] came to 0.04 µM. This molecule registered a CC50 at 3 days in data set [2] of 36.4 µM.

In turn, `CNC(=O)[C@H]1CCN(c2cc(F)c(-c3cc4nc(C(=O)N5CCc6ccccc6[C@H]5C)cc(C5CC5)n4n3)cn2)C1` [Compound 53, (3S)-1-(5-{7-Cyclopropyl-5-[(1R)-1-methyl-1,2,3,4-tetrahydroisoquinoline-2-carbonyl]-pyrazolo[1,5-a]pyrimidin-2-yl}-4-fluoropyridin-2-yl)-N-methylpyrrolidine-3-carboxamide] returned a melting point of 228.33 °C. Also, the EC50 in data set [1] stood at 0.035 µM. Also, in data set [2], the CC50 at 3 days was > 100 µM.

As for `COCCOc1cc(N2CC[C@H](C(N)=O)C2)nc(F)c1-c1cc2nc(C(=O)N3CCc4ccccc4[C@H]3C)cc(C3CC3)n2n1` [Compound 87, (3S)-1-(5-{7-Cyclopropyl-5-[(1R)-1-methyl-1,2,3,4-tetrahydroisoquinoline-2-carbonyl]-pyrazolo[1,5-a]pyrimidin-2-yl}-6-fluoro-4-(2-methoxyethoxy)pyridin-2-yl)pyrrolidine-3-carboxamide], the melting point was determined as 152.28 °C. Moreover, in data set [1], the EC50 was determined as 0.215 µM. This molecule also had a CC50 at 3 days in data set [2] of 47.4 µM.

Consider `C[C@@H]1c2ccccc2CCN1C(=O)c1cc(C2CC2)n2nc(-c3cc(F)c(N4CC[C@H](C(N)=O)C4)cc3F)cc2n1` [Compound 55, (3S)-1-(4-{7-Cyclopropyl-5-[(1R)-1-methyl-1,2,3,4-tetrahydroisoquinoline-2-carbonyl]-pyrazolo[1,5-a]pyrimidin-2-yl}-2,5-difluorophenyl)pyrrolidine-3-carboxamide], for which the melting point was 253.3 °C. Also, the half-maximal effective concentration (EC50) in data set [1] worked out at 0.016 µM. Further, the CC50 at 3 days in data set [2] was > 100 µM.

`C[C@@H]1c2ccccc2CCN1C(=O)c1cc(C2CC2)n2nc(-c3ccc(N4CC[C@@H](S(C)(=N)=O)C4)cc3F)cc2n1` (stereo partly drawn) [Compound 79, [(3R)-1-(4-{7-Cyclopropyl-5-[(1R)-1-methyl-1,2,3,4-tetrahydroisoquinoline-2-carbonyl]-pyrazolo[1,5-a]pyrimidin-2-yl}-3-fluorophenyl)pyrrolidin-3-yl](imino)methyl-λ^6-sulfanone] registered a melting point of 285.54 °C. For the same molecule, in data set [1], the EC50 stood at 0.476 µM. For the same molecule, the midpoint of cytotoxicity in data set [2], the CC50 at 3 days, lay at 13.3 µM.

Regarding `CC(=O)N[C@@H]1CCN(c2ccc(-c3cc4nc(C(=O)N5CCc6ccccc6[C@H]5C)cc(C5CC5)n4n3)c(F)c2)C1` [Compound 7, N-[(3R)-1-(4-{7-Cyclopropyl-5-[(1R)-1-methyl-1,2,3,4-tetrahydroisoquinoline-2-carbonyl]pyrazolo[1,5-a]pyrimidin-2-yl}-3-fluorophenyl)pyrrolidin-3-yl]acetamide], the melting point is 189 °C. For the same molecule, the EC50 in data set [1] is 0.037 µM. In addition, the midpoint of cytotoxicity in data set [2], the CC50 at 3 days, lay at 71.5 µM.

`C[C@@H]1c2ccccc2CCN1C(=O)c1cc(C2CC2)n2nc(-c3ccc(N4CC[C@H](C(N)=O)[C@@H]4C)cc3F)cc2n1` (single isomer, unassigned) [Compound 83, (2*S,3*S)-1-(4-{7-Cyclopropyl-5-[(1R)-1-methyl-1,2,3,4-tetrahydroisoquinoline-2-carbonyl]pyrazolo[1,5-a]pyrimidin-2-yl}-3-fluorophenyl)-2-methylpyrrolidine-3-carboxamide] displayed a melting point of 235.56 °C. Further, the EC50 in data set [1] worked out at 0.044 µM. The molecule further displayed a CC50 at 3 days in data set [2] of 42.4 µM.

With `C[C@@H]1c2ccccc2CCN1C(=O)c1cc(C2CC2)n2nc(-c3ccc(N4CCC(S(N)(=O)=O)C4)cc3F)cc2n1` (stereo partly drawn) [Compound 19, 1-(4-{7-Cyclopropyl-5-[(1R)-1-methyl-1,2,3,4-tetrahydroisoquinoline-2-carbonyl]-pyrazolo[1,5-a]pyrimidin-2-yl}-3-fluorophenyl)pyrrolidine-3-sulfonamide], the melting point was 308.63 °C. The EC50 in data set [1] was 0.041 µM. The same molecule gave a CC50 at 3 days in data set [2] of 72.3 µM.

Turning to `C[C@@H]1c2ccccc2CCN1C(=O)c1cc(C2CC2)n2nc(-c3ccc(N4CC(O)C4)cc3F)cc2n1` [Compound 67, 1-(4-{7-Cyclopropyl-5-[(1R)-1-methyl-1,2,3,4-tetrahydroisoquinoline-2-carbonyl]-pyrazolo[1,5-a]pyrimidin-2-yl}-3-fluorophenyl)azetidin-3-ol], the melting point worked out at 205.81 °C. Besides, in data set [1], the EC50 worked out at 0.03 µM. Moreover, the CC50 at 3 days in data set [2] worked out at 36.5 µM.

In turn, `C[C@@H]1c2ccccc2CCN1C(=O)c1cc(C2CC2)n2nc(-c3ccc(N4C[C@H](C(N)=O)C[C@H]4C)cc3F)cc2n1` (single isomer, unassigned) [Compound 32, (3*R,5*R)-1-(4-{7-cyclopropyl-5-[(1R)-1-methyl-1,2,3,4-tetrahydroisoquinoline-2-carbonyl]pyrazolo[1,5-a]pyrimidin-2-yl}-3-fluorophenyl)-5-methylpyrrolidine-3-carboxamide] registered a melting point of 297.57 °C. Besides, in data set [1], the EC50 worked out at 0.06 µM. The midpoint of cytotoxicity in data set [2], the CC50 at 3 days, lay at 32.1 µM.

On to `C[C@@H]1c2ccsc2CCN1C(=O)c1cc(C2CC2)n2nc(-c3ccc(N4CC[C@@H](CC(N)=O)C4)cc3F)cc2n1` (single isomer, unassigned) [Compound 43, 2-[(3S)-1-(4-{7-Cyclopropyl-5-[(4*R)-4-methyl-4,5,6,7-tetrahydro-thieno[3,2-c]pyridine-5-carbonyl]pyrazolo[1,5-a]pyrimidin-2-yl}-3-fluorophenyl)pyrrolidin-3-yl]acetamide], for which the melting point came to 214.36 °C. For the same molecule, the EC50 in data set [1] came out at 0.017 µM. This molecule gave a CC50 at 3 days in data set [2] of 29.8 µM.
